{"source": "patent US4314061A", "about": "“Certain 3,6-bis-(heteroaminoalkoxy) acridines” (priority 1980, dated 1982)", "key": {"Lewis lung carcinoma": {"test_system": "Lewis lung carcinoma", "test": "Surgical-adjuvant antitumor activity against Lewis lung carcinoma implanted subcutaneously in footpads", "type": "in vivo, BDF1 mice", "conditions": "100 mg/kg intraperitoneal", "protocol": "BDF1 mice were inoculated subcutaneously in the right hind footpad with 5×10^5 viable Lewis Lung carcinoma cells, on day zero. […] A control group of mice received a saline placebo instead of drug, and another group of tumor bearing mice received the positive control drug cyclophosphamide, at 100 mg/kg, administered by intraperitoneal injection. On the 11th day after tumor implantation, the mice were anesthesized with Nembutal, and the tumor bearing feet surgically amputated above the ankle joint. The surgical incision was swabbed with alcohol and sealed with stainless steel wound clips. The tumor bearing feet were individually weighed and the average weight of a normal foot (determined by weighing amputated feet from non-tumor bearing mice of the same age, sex and body weight) was subtracted to obtain the weight of tumor tissue in the amputated foot. Mice were then observed for deaths until the 90th day after tumor implantation. […]\n^1 BDF1 male mice inoculated subcutaneously in footpad with 5\n× 10^5 Lewis lung tumor cells on day zero;\n(§1) 3,6bis(2-diethylaminoethoxy)acridine trihydrochloride administered orally\n(§2) and Cyclophosphamide intraperitoneally, on days 1, 7, and 13 following\n(§3) ^2 Average tumor weight determined after surgical amputation of tumor\nbearing foot on day 11 following tumor implantation."}, "B16 melanoma": {"test_system": "B16 melanoma", "test": "Surgical-adjuvant antitumor activity against B16 melanoma implanted subcutaneously in footpads", "type": "in vivo, BDF1 mice", "conditions": "100 mg/kg intraperitoneal", "protocol": "BDF1 mice were inoculated subcutaneously in the right hind footpad with 5×10^5 viable B16 melanoma cells, on day zero. The drug was prepared in normal saline and administered by the oral route once daily, on days 1, 7, and 13 following tumor implantation, at doses range from 50 mg/kg to 400 mg/kg. A control group of mice received a saline placebo instead of drug, and another group of tumor bearing mice received the positive control drug cyclophosphamide, at 100 mg/kg, by intraperitoneal injection. On the 21st day after tumor implantation, the mice were anesthesized with Nembutal, and the tumor bearing feet were surgically amputated above the ankle joint. The surgical incision was swabbed with alcohol and sealed with stainless steel wound clips. The tumor bearing feet were individually weighed and the average weight of a normal foot (determined by weighing amputated feet from non-tumor bearing mice of the same sex, age, and body weight) was subtracted to obtain the weight of tumor tissue in the amputated feet. Mice were then observed for deaths until the 90th day after tumor implantation. […]\n^1 BDF1 male mice inocluated with 5 × 10^5 B16 melanom\ncells subcutaneously in footpad on day zero;\nas §1, §2, §3\nbearing foot on day 21 following tumor implantation."}, "B-16 melanoma": {"test_system": "B-16 melanoma", "test": "Potentiation of cyclophosphamide (Cytoxan) activity against B16 melanoma in mice", "type": "in vivo, BDF1 mice", "protocol": "BDF1 male mice were inoculated subcutaneously with 0.25 ml. of a 10% B-16 melanoma homogenate. Cyclophosphamide was administered intraperitoneally at 80 mg./kg. the second day following the day of tumor implantation. Test compounds were given intraperitoneally on days +6, +8 and +10 relative to tumor implantation. […]\nBDF1 male mice inoculated subcutaneously with 0.25 ml. of a 10% tumo\nhomogenate on day 0. Drugs were administered intraperitoneally;\ncyclophosphoamide on day 2, 3,6bis(2-diethylaminoethoxy)acridine\ntrihydrochloride on days 6, 8 and 10.\n^1 Number of survivors over number of mice treated."}, "[1]": {"test_system": "Rauscher Virus-Induced Leukemia", "test": "Inhibition of splenomegaly in mice with Rauscher virus-induced leukemia", "type": "in vivo, Balb/c mice"}, "normal mouse bone marrow": {"test_system": "normal mouse bone marrow", "test": "Effect on normal mouse bone marrow", "type": "in vivo, C57 BL6 male mice", "conditions": "24 hours after treatment; test compound oral, Cytoxan intraperitoneal", "protocol": "The effect of drugs on normal mouse bone marrow is evaluated by determining total cell counts of femurs and by the ability of surviving cells to form colonies in semi-solid medium. The test compound is administered orally and the reference drug Cytoxan is administered intraperitoneally to C57 BL6 male mice. One femur from each of three mice per dose level is assayed 24 hours after treatment. Counts of nucleated cells are performed on pooled marrow suspensions and the clonogenic assay is performed by plating 50,000 cells in one ml. of culture medium in each of four culture dishes. The medium to support bone marrow progenitor cell growth is McCoy's medium supplemented with 0.9% methocel, 1.8% human serum albumin, 10% bovine fetal serum and 10% \"conditioned\" L-cell medium. Cultures are incubated at 37° C. in a humidified atmosphere and colonies are counted at seven days."}, "tumor": {"test_system": "tumor", "conditions": "experimental studies in animals; cited from earlier work"}, "[2]": {"test_system": "malignant melanoma, acute leukemia, lung cancer, breast cancer", "conditions": "early clinical trials; cited from earlier work"}, "[3]": {"conditions": "cyclophosphamide 80 mg/kg i.p. alone"}, "[4]": {"conditions": "cyclophosphamide 80 mg/kg i.p. alone, day 26"}}, "data": [{"compound": "O=P1(N(CCCl)CCCl)NCCCO1", "note": "(stereo not shown) [Cyclophosphamide, reference compound]", "values": [{"measurement": "Median survival time", "setting": "Lewis lung carcinoma", "value": "> 90.0", "unit": "days"}, {"measurement": "Average tumor weight", "setting": "Lewis lung carcinoma; Day +11", "value": 93, "unit": "mg"}, {"measurement": "Average % of tumor weight inhibition", "setting": "Lewis lung carcinoma; Day +11, * significant (≥58%)", "value": 75, "unit": "%"}, {"measurement": "No. Survivors/No. Treated", "setting": "Lewis lung carcinoma; at +90 days, ** p < .05", "value": "10/12"}, {"measurement": "% Increased life-span", "setting": "Lewis lung carcinoma; + significant (≥25%)", "value": "> 200", "unit": "%"}, {"measurement": "Median survival time", "setting": "B16 melanoma", "value": "> 90.0", "unit": "days"}, {"measurement": "Average tumor weight", "setting": "B16 melanoma; Day +21", "value": 202, "unit": "mg"}, {"measurement": "Average % of tumor weight inhibition", "setting": "B16 melanoma; Day +21, * significant (≥58%)", "value": 67, "unit": "%"}, {"measurement": "No. Survivors/No. Treated", "setting": "B16 melanoma; at +90 days, ** significant", "value": "7/12"}, {"measurement": "% Increased life-span", "setting": "B16 melanoma; + significant (≥25%)", "value": "> 70", "unit": "%"}, {"measurement": "ILS (Percent increase in life span over control)", "setting": "B-16 melanoma; [3]", "value": 11, "unit": "%"}, {"measurement": "MST (Median Survival Time)", "setting": "B-16 melanoma; [3]", "value": 25.0, "unit": "days"}, {"measurement": "Number of survivors over number of mice treated", "setting": "B-16 melanoma; cyclophosphamide 80 mg/kg i.p. alone, day 21", "value": "8/8"}, {"measurement": "Average tumor weight", "setting": "B-16 melanoma; cyclophosphamide 80 mg/kg i.p. alone, day 21, p <0.05 vs untreated", "value": 1237, "unit": "mg"}, {"measurement": "Average tumor weight", "setting": "B-16 melanoma; [4]", "value": 7458, "unit": "mg"}, {"measurement": "Number of survivors over number of mice treated", "setting": "B-16 melanoma; [4]", "value": "3/8"}, {"measurement": "50% inhibition in local tumor growth, in words", "setting": "B-16 melanoma; monotherapy, i.p., day +26", "value": "failed to do so"}, {"measurement": "% Reduction in splenomegaly", "setting": "[1]; 100 mg/kg", "value": 106, "unit": "%"}, {"measurement": "reduction in splenomegaly", "setting": "[1]; general statement, no dose, relative to placebo treated RLV-infected mice", "value": "≥ 50", "unit": "%"}, {"measurement": "Effect on total nucleated cell count of femur marrow, in words", "setting": "normal mouse bone marrow", "value": "depressed the cell count significantly"}]}, {"compound": "c1ccc([C@H]2CN3CCSC3=N2)cc1", "note": "[levamisole]", "values": [{"measurement": "Stimulation of cellular immunity and tumor regression, in words", "setting": "tumor", "value": "shown to stimulate cellular immunity and to produce tumor regression"}, {"measurement": "Clinical antitumor success, in words", "setting": "[2]", "value": "Some successes have been claimed"}]}]}
